From patent publication US9969742B2, “Imidazotriazinone compounds” (Ironwood Pharmaceuticals, Inc., priority 2012, dated 2018)
Where two headings read alike, the source gives them in different places.

Tests used:
Assay type in all cases: biochemical
PDE9A2 = biological target: T1, PDE9A2 (Homo sapiens, UniProt O76083); experiment: Phosphodiesterase enzyme screening assay, PDE9A2
T1 construct: purchased Reaction Biology Corporation, Malvern, Pa
How it was run: (§1)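 Reaction started by adding substrate (4.0 μM cGMP) to recombinant human enzyme in HEPES pH 7.5 buffer with MgCl2, DTT and Brij; 1 h at room temperature; quenched with EDTA-containing stop buffer; product and substrate resolved electrophoretically and quantified by fluorescence relative to uninhibited controls.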

PDE1A = biological target: T2, PDE1A (Homo sapiens, UniProt P54750); experiment: Phosphodiesterase enzyme screening assay, PDE1A
T2 construct: purchased Reaction Biology Corporation, Malvern, Pa
T2 sequence (P54750 whole entry): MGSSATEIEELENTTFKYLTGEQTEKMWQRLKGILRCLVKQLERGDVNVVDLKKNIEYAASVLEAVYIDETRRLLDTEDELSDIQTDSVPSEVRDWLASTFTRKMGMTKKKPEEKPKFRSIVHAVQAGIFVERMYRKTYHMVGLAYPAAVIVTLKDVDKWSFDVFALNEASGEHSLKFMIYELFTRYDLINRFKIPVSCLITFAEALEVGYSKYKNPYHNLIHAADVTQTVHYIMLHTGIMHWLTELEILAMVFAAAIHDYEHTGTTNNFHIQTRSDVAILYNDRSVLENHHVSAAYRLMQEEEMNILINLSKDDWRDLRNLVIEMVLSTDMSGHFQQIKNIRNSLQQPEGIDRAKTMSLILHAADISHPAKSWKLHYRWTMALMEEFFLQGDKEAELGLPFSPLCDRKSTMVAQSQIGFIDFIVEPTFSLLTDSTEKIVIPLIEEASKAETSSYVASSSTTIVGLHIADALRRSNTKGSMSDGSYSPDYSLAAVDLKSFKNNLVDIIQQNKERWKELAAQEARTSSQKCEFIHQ
How it was run: as §1

PDE1B = biological target: T3, PDE1B (Homo sapiens, UniProt Q01064); experiment: Phosphodiesterase enzyme screening assay, PDE1B
T3 construct: purchased Reaction Biology Corporation, Malvern, Pa
T3 sequence (Q01064 whole entry): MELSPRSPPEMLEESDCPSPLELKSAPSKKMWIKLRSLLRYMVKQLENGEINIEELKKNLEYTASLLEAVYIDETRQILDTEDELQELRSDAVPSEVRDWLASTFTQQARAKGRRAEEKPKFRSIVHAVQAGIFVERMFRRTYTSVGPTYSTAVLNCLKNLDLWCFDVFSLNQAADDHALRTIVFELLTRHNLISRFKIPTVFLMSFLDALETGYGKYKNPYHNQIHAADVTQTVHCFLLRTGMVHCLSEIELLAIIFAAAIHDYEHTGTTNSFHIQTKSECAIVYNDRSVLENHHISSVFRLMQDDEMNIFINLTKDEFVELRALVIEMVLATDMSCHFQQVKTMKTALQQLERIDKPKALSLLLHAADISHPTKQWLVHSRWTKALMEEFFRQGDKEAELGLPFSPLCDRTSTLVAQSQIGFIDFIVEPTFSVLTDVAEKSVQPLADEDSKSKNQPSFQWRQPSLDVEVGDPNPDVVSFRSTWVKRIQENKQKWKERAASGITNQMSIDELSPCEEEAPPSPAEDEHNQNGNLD
How it was run: as §1

[1] = Table 3, 4.0 μM cGMP substrate, 1 hour at R.T., read-out: Band (PDE9A2 IC50)
[2] = ratio of IC50 values, PDE1A versus PDE9A2, value greater than 1 = greater selectivity for PDE9A2
[3] = ratio of IC50 values, PDE1B versus PDE9A2, value greater than 1 = greater selectivity for PDE9A2
[4] = Table 1, 10 concentrations, 4.0 μM cGMP substrate, 1 hour at R.T., read-out: Band (PDE9A2 IC50)
[5] = Table 1, ratio of IC50 values, value greater than 1 indicates greater selectivity for PDE9A2
[6] = 4.0 μM cGMP substrate, 1 hour at R.T., read-out: Band (PDE9A2 IC50)
[7] = ratio of IC50 values PDE1A / PDE9A2, value greater than 1 = greater selectivity for PDE9A2
[8] = ratio of IC50 values PDE1B / PDE9A2, value greater than 1 = greater selectivity for PDE9A2
[9] = ratio of IC50 values, value greater than 1 indicates greater selectivity for PDE9A2
[10] = IC50 band, 4.0 μM cGMP substrate, 1 hour at R.T.
[11] = ratio of IC50 values PDE1A vs PDE9A2, value greater than 1 indicates greater selectivity for PDE9A2
[12] = ratio of IC50 values PDE1B vs PDE9A2, value greater than 1 indicates greater selectivity for PDE9A2

T1 sequence (O76083 1-533 isoform O76083-2): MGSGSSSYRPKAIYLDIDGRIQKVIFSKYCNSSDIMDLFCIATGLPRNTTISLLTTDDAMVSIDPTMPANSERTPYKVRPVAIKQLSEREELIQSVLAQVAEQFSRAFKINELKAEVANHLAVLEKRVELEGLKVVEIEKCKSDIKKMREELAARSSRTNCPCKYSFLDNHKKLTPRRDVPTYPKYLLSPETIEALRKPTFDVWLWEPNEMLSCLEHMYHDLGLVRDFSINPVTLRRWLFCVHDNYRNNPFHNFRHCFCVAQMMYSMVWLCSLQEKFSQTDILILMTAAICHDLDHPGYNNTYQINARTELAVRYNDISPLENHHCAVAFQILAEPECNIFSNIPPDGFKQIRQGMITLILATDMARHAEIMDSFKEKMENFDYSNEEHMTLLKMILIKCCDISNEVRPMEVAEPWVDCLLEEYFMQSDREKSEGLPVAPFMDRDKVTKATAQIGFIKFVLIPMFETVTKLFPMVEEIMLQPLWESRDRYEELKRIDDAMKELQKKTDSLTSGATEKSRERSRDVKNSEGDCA

## CC1CN(Cc2cccc(C(F)(F)F)n2)CC1c1nn2c(C3CCOCC3)ncc2c(=O)[nH]1 (single isomer, unassigned; (+)) [(+)-2-((3,4-trans)-4-methyl-1-((6-(trifluoromethyl)pyridin-2-yl)methyl)pyrrolidin-3-yl)-7-(tetrahydro-2H-pyran-4-yl)imidazo[5,1-f][1,2,4]triazin-4(3H)-one]
PDE9A2; [1]
  IC50: < 1000 nM
PDE1A; [2]
  PDE1A selectivity (versus PDE9A2): 708
PDE1B; [3]
  PDE1B selectivity (versus PDE9A2): 389

## CC1CN(Cc2cnn(C)c2)CC1c1nn2c(C3CCOCC3)ncc2c(=O)[nH]1 (single isomer, unassigned; (+)) [(+)-2-((3,4-trans)-4-methyl-1-((1-methyl-1H-pyrazol-4-yl)methyl)pyrrolidin-3-yl)-7-(tetrahydro-2H-pyran-4-yl)imidazo[5,1-f][1,2,4]triazin-4(3H)-one]
PDE9A2; [1]
  IC50: < 1000 nM
PDE1A; [2]
  PDE1A selectivity (versus PDE9A2): 247
PDE1B; [3]
  PDE1B selectivity (versus PDE9A2): 434

## CC1CN(C(=O)c2cccnc2)CC1c1nn2c(C3CCOCC3)ncc2c(=O)[nH]1 (single isomer, unassigned; (-)) [(−)-2-((3,4-trans)-4-methyl-1-nicotinoylpyrrolidin-3-yl)-7-(tetrahydro-2H-pyran-4-yl)imidazo[5,1-f][1,2,4]triazin-4(3H)-one]
PDE9A2; [4]
  IC50: < 1000 nM
PDE1A; [5]
  PDE1A selectivity (versus PDE9A2): 36
PDE1B; [5]
  PDE1B selectivity (versus PDE9A2): 50

## Cc1cccc(CN2CC(C)C(c3nn4c(C5CCOCC5)ncc4c(=O)[nH]3)C2)n1 (single isomer, unassigned; (+)) [(+)-2-((3,4-trans)-4-methyl-1-((6-methylpyridin-2-yl)methyl)pyrrolidin-3-yl)-7-(tetrahydro-2H-pyran-4-yl)imidazo[5,1-f][1,2,4]triazin-4(3H)-one]
PDE9A2; [6]
  IC50: < 1000 nM
PDE1A; [7]
  PDE1A selectivity (versus PDE9A2): 780
PDE1B; [8]
  PDE1B selectivity (versus PDE9A2): 1005

## CC1CN(Cc2cc(F)cc(F)c2)CC1c1nn2c(C3CCOCC3)ncc2c(=O)[nH]1 (single isomer, unassigned; (+)) [(+)-2-((3,4-trans)-1-(3,5-difluorobenzyl)-4-methylpyrrolidin-3-yl)-7-(tetrahydro-2H-pyran-4-yl)imidazo[1,5-f][1,2,4]triazin-4(3H)-one]
PDE9A2; [4]
  IC50: < 1000 nM
PDE1A; [5]
  PDE1A selectivity (versus PDE9A2): 1710
PDE1B; [5]
  PDE1B selectivity (versus PDE9A2): 1043

## CC1CN(Cc2cccc(F)c2F)CC1c1nn2c(C3CCOCC3)ncc2c(=O)[nH]1 (single isomer, unassigned; (+)) [(+)-2-((3,4-trans)-1-(2,3-difluorobenzyl)-4-methylpyrrolidin-3-yl)-7-(tetrahydro-2H-pyran-4-yl)imidazo[5,1-f][1,2,4]triazin-4(3H)-one]
PDE9A2; [4]
  IC50: < 1000 nM
PDE1A; [5]
  PDE1A selectivity (versus PDE9A2): 159
PDE1B; [5]
  PDE1B selectivity (versus PDE9A2): 218

## CC1CN(Cc2cnn3c2CCCC3)CC1c1nn2c(C3CCOCC3)ncc2c(=O)[nH]1 (single isomer, unassigned; (+)) [(+)-2-((3,4-trans)-4-methyl-1-((4,5,6,7-tetrahydropyrazolo[1,5-a]pyridin-3-yl)methyl)pyrrolidin-3-yl)-7-(tetrahydro-2H-pyran-4-yl)imidazo[5,1-f][1,2,4]triazin-4(3H)-one]
PDE9A2; read-out: Band (PDE9A2 IC50)
  IC50: < 1000 nM
PDE1A; [9]
  PDE1A selectivity (versus PDE9A2): 337
PDE1B; [9]
  PDE1B selectivity (versus PDE9A2): 337

## CC1CN(Cc2ccc[nH]c2=O)CC1c1nn2c(C3CCOCC3)ncc2c(=O)[nH]1 (single isomer, unassigned; (+)) [(+)-2-((3,4-trans)-4-methyl-1-((2-oxo-1,2-dihydropyridin-3-yl)methyl)pyrrolidin-3-yl)-7-(tetrahydro-2H-pyran-4-yl)imidazo[5,1-f][1,2,4]triazin-4(3H)-one]
PDE9A2; [4]
  IC50: < 1000 nM
PDE1A; [5]
  PDE1A selectivity (versus PDE9A2): 424
PDE1B; [5]
  PDE1B selectivity (versus PDE9A2): 940

## COc1ncc(CN2CC(C)C(c3nn4c(C5CCOCC5)ncc4c(=O)[nH]3)C2)cn1 (single isomer, unassigned; (+)) [(+)-2-((3,4-trans)-1-((2-methoxypyrimidin-5-yl)methyl)-4-methylpyrrolidin-3-yl)-7-(tetrahydro-2H-pyran-4-yl)imidazo[5,1-f][1,2,4]triazin-4(3H)-one]
PDE9A2; [6]
  IC50: < 1000 nM
PDE1A; [7]
  PDE1A selectivity (versus PDE9A2): 1210
PDE1B; [8]
  PDE1B selectivity (versus PDE9A2): 3650

## CC1CN(Cc2nc3ccccc3[nH]2)CC1c1nn2c(C3CCC(F)(F)CC3)ncc2c(=O)[nH]1 (single isomer, unassigned; (+)) [(+)-2-((3,4-trans)-1-((1H-benzo[d]imidazol-2-yl)methyl)-4-methylpyrrolidin-3-yl)-7-(4,4-difluorocyclohexyl)imidazo[5,1-f][1,2,4]triazin-4(3H)-one]
PDE9A2; [10]
  IC50: < 1000 nM
PDE1A; [11]
  PDE1A selectivity (versus PDE9A2): 90
PDE1B; [12]
  PDE1B selectivity (versus PDE9A2): 250

## COc1ccc(F)c(CN2CC(C)C(c3nn4c(C5CCOCC5)ncc4c(=O)[nH]3)C2)c1 (single isomer, unassigned; (+)) [(+)-2-((3,4-trans)-1-(2-fluoro-5-methoxybenzyl)-4-methylpyrrolidin-3-yl)-7-(tetrahydro-2H-pyran-4-yl)imidazo[5,1-f][1,2,4]triazin-4(3H)-one]
PDE9A2; [4]
  IC50: < 1000 nM
PDE1A; [5]
  PDE1A selectivity (versus PDE9A2): 340
PDE1B; [5]
  PDE1B selectivity (versus PDE9A2): 255

## Cc1ccccc1-c1ncc2c(=O)[nH]c(C3CN(Cc4nc5ccccn5n4)CC3C)nn12 (single isomer, unassigned; (+)) [(+)-2-((3,4-trans)-1-([1,2,4]triazolo[1,5-a]pyridin-2-ylmethyl)-4-methylpyrrolidin-3-yl)-7-(o-tolyl)imidazo[5,1-f][1,2,4]triazin-4(3H)-one]
PDE9A2; read-out: Band (PDE9A2 IC50)
  IC50: < 1000 nM
PDE1A; ratio of IC50 values, PDE1A versus PDE9A2, value greater than 1 indicates greater selectivity for PDE9A2
  PDE1A selectivity (versus PDE9A2): 490
PDE1B; ratio of IC50 values, PDE1B versus PDE9A2, value greater than 1 indicates greater selectivity for PDE9A2
  PDE1B selectivity (versus PDE9A2): 429

## Cc1cnccc1-c1ncc2c(=O)[nH]c(C3CN(Cc4ncccn4)CC3C)nn12 (single isomer, unassigned; (+)) [(+)-2-((3,4-trans)-4-methyl-1-(pyrimidin-2-ylmethyl)pyrrolidin-3-yl)-7-(3-methylpyridin-4-yl)imidazo[5,1-f][1,2,4]triazin-4(3H)-one]
PDE9A2; [6]
  IC50: < 1000 nM
PDE1A; ratio of IC50 values PDE1A / PDE9A2, value greater than 1 indicates greater selectivity for PDE9A2
  PDE1A selectivity (versus PDE9A2): 85
PDE1B; ratio of IC50 values PDE1B / PDE9A2, value greater than 1 indicates greater selectivity for PDE9A2
  PDE1B selectivity (versus PDE9A2): 63

## CC1CN(Cc2ccoc2)CC1c1nn2c(C3CCOCC3)ncc2c(=O)[nH]1 (single isomer, unassigned; (+)) [(+)-2-((3,4-trans)-1-(furan-3-ylmethyl)-4-methylpyrrolidin-3-yl)-7-(tetrahydro-2H-pyran-4-yl)imidazo[5,1-f][1,2,4]triazin-4(3H)-one]
PDE9A2; [1]
  IC50: < 1000 nM
PDE1A; [2]
  PDE1A selectivity (versus PDE9A2): 68
PDE1B; [3]
  PDE1B selectivity (versus PDE9A2): 123

## CC1CN(Cc2ccc3cccnc3c2)CC1c1nn2c(C3CCOCC3)ncc2c(=O)[nH]1 (single isomer, unassigned; (-)) [(−)-2-((3,4-trans)-4-methyl-1-(quinolin-7-ylmethyl)pyrrolidin-3-yl)-7-(tetrahydro-2H-pyran-4-yl)imidazo[5,1-f][1,2,4]triazin-4(3H)-one]
PDE9A2; [4]
  IC50: < 1000 nM
PDE1A; [5]
  PDE1A selectivity (versus PDE9A2): 334
PDE1B; [5]
  PDE1B selectivity (versus PDE9A2): 2610

## CC1CN(Cc2ccc(-c3ccncc3)cc2)CC1c1nn2c(C3CCOCC3)ncc2c(=O)[nH]1 (single isomer, unassigned; (-)) [(−)-2-((3,4-trans)-4-methyl-1-(4-(pyridin-4-yl)benzyl)pyrrolidin-3-yl)-7-(tetrahydro-2H-pyran-4-yl)imidazo[5,1-f][1,2,4]triazin-4(3H)-one]
PDE9A2; [1]
  IC50: < 1000 nM
PDE1A; [2]
  PDE1A selectivity (versus PDE9A2): 679
PDE1B; [3]
  PDE1B selectivity (versus PDE9A2): 1560

## CC1CN(Cc2cn3ncccc3n2)CC1c1nn2c(C3CCOCC3)ncc2c(=O)[nH]1 (single isomer, unassigned; (-)) [(−)-2-((3,4-trans)-1-(imidazo[1,2-b]pyridazin-2-ylmethyl)-4-methylpyrrolidin-3-yl)-7-(tetrahydro-2H-pyran-4-yl)imidazo[5,1-f][1,2,4]triazin-4(3H)-one]
PDE9A2; [4]
  IC50: < 1000 nM
PDE1A; [5]
  PDE1A selectivity (versus PDE9A2): 8
PDE1B; [5]
  PDE1B selectivity (versus PDE9A2): 12

## COc1ccc(CN2CC(C)C(c3nn4c(C5CCOCC5)ncc4c(=O)[nH]3)C2)nc1 (single isomer, unassigned; (+)) [(+)-2-((3,4-trans)-1-((5-methoxypyridin-2-yl)methyl)-4-methylpyrrolidin-3-yl)-7-(tetrahydro-2H-pyran-4-yl)imidazo[5,1-f][1,2,4]triazin-4(3H)-one]
PDE9A2; read-out: Band (PDE9A2 IC50)
  IC50: < 1000 nM
PDE1A; [9]
  PDE1A selectivity (versus PDE9A2): 216
PDE1B; [9]
  PDE1B selectivity (versus PDE9A2): 540

## Cc1cc(F)ccc1-c1ncc2c(=O)[nH]c(C3CN(Cc4ccc(Cl)cc4)CC3C)nn12 (single isomer, unassigned; (+)) [(+)-2-((3,4-trans)-1-(4-chlorobenzyl)-4-methylpyrrolidin-3-yl)-7-(4-fluoro-2-methylphenyl)imidazo[5,1-f][1,2,4]triazin-4(3H)-one]
PDE9A2; [10]
  IC50: < 1000 nM
PDE1A; [11]
  PDE1A selectivity (versus PDE9A2): 468
PDE1B; [12]
  PDE1B selectivity (versus PDE9A2): 1106
